From US10947242B2, “[1,2,4]triazolo[1,5and#8208;A]pyrimidine compounds as PDE2 inhibitors” (Janssen Pharmaceutica NV, priority 2016, dated 2021)
“And” between values parts separate entries of the source, which are not always exact repeats. Identical values can stand only once. Like-named read-outs stand apart in the source and are kept apart here.

Key:
[1] = biological target: T1, Human recombinant PDE3A (hPDE3A) (Homo sapiens, UniProt Q14432); test: In vitro assay PDE3A (SPA, 3H-cAMP hydrolysis); assay type: biochemical; settings: for IC50: hPDE3B pIC50, read-out: pIC50 (converted); for Emax: read-out: hPDE3B Emax, read-out: Emax;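 for all read-outs here: the method names PDE3A and the table heading PDE3B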
T1 construct: purchased Scottish Biomedical; host or cells: Sf9 insect cells
In short: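 Radiometric SPA measuring [3H]-cAMP hydrolysis (0.4 μM cAMP, 2.4 μCi/ml) over 60 min at room temperature, in Tris pH 7.8 buffer with MgCl2 and EGTA, 1% DMSO. Enzyme: recombinant human brain PDE3A expressed in Sf9 cells, used as partially purified lysate. Counts compared with enzyme-free blanks and vehicle controls.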

[2] = biological target: T2, Human recombinant PDE2A (hPDE2A) (Homo sapiens, UniProt O00408); test: In vitro assay PDE2A (SPA, 3H-cGMP hydrolysis); assay type: biochemical; settings: for IC50: read-out: hPDE2A pIC50 (converted); for Emax: read-out: hPDE2A Emax
T2 construct: His tag (inferred from metal chelate purification); made in house; host or cells: Sf9 insect cells (baculovirus)

[3] = biological target: T3, Rat recombinant PDE10A (rPDE10A2) (Rattus norvegicus, UniProt Q9QYJ6); test: In vitro assay PDE10A, rat clone (SPA, 3H-cAMP hydrolysis); assay type: biochemical; settings: for IC50: read-out: rPDE10A2 pIC50 (converted)
T3 construct: His tag (inferred from metal chelate purification); made in house; host or cells: Sf9 insect cells (baculovirus)
T3 sequence (Q9QYJ6 1-794): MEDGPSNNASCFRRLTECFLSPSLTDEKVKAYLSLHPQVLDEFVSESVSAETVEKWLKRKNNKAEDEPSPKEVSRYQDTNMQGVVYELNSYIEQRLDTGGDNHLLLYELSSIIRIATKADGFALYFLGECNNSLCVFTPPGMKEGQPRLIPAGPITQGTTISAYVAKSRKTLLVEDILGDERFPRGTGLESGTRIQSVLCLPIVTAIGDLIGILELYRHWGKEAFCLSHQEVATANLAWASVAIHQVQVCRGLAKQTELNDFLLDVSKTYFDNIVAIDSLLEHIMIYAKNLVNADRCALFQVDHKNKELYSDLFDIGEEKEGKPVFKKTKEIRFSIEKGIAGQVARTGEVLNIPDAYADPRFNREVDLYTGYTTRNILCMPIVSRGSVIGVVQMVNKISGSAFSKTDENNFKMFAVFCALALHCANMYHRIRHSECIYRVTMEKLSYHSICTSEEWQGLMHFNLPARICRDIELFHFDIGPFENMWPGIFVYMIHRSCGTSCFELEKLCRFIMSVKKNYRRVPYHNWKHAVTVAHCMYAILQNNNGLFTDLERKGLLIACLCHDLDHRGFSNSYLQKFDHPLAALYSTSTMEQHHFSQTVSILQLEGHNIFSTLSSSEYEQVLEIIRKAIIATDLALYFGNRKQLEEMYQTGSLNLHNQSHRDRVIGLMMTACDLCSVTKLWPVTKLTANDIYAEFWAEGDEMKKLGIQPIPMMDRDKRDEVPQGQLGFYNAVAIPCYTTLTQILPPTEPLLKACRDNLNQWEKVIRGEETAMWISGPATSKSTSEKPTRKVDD
Experimental: Rat recombinant PDE10A (rPDE10A2) was expressed in Sf9 cells using a recombinant rPDE10A baculovirus construct. Cells were harvested after 48 h of infection and the rPDE10A protein was purified by metal chelate chromatography on Ni-sepharose 6FF. Tested compounds were dissolved and diluted in 100% DMSO to a concentration 100 fold of the final concentration in the assay. Human recombinant PDE10A ([…]) was expressed in Sf9 cells using a recombinant hPDE10A baculovirus that was made and amplified in house. Cells were harvested after 72 h of infection and the hPDE10A protein was purified by metal chelate chromatography on Ni-sepharose. Compound dilutions (0.4 μl) were added in 384 well plates to 20 μl of incubation buffer (50 mM Tris pH 7.8, 8.3 mM MgCl2, 1.7 mM EGTA). 10 μl of rPDE10A or hPDE10A enzyme in incubation buffer was added and the reaction was started by addition of 10 μl substrate to a final concentration of 60 nM cAMP and 0.008 μCi ^3H-cAMP. The reaction was incubated for 60 minutes at room temperature. After incubation, the reaction was stopped with 20 μl of stop solution consisting of 17.8 mg/ml PDE SPA (scintillation proximity assay) beads. After sedimentation of the beads during 30 minutes the radioactivity was measured in a Perkin Elmer Topcount scintillation counter and results were expressed as cpm. For blanc values the enzyme was omitted from the reaction and replaced by incubation buffer. Control values were obtained by addition of a final concentration of 1% DMSO instead of compound. A best fit curve is fitted by a minimum sum of squares method to the plot of % of control value subtracted with blanc value versus compound concentration and the half maximal inhibitory concentration (IC50) value is derived from this curve.

[4] = biological target: T4, Human recombinant PDE10A (hPDE10A) (Homo sapiens, UniProt Q9Y233); test: In vitro assay PDE10A, human clone (SPA, 3H-cAMP hydrolysis); assay type: biochemical; settings: human clone (h), default; for Emax: read-out: hPDE10A2 Emax; for IC50: read-out: hPDE10A2 pIC50 (converted)
T4 construct: His tag (inferred from metal chelate purification); made in house; host or cells: Sf9 insect cells (baculovirus)
In short: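 Hydrolysis of 3H-cAMP (60 nM cAMP, 0.008 μCi tracer) proceeded for 60 min at room temperature, with the product detected by SPA bead scintillation counting. The enzyme was hPDE10A from baculovirus-infected Sf9 cells in Tris pH 7.8 buffer with MgCl2 and EGTA, and compounds were at 1% DMSO final. Blanks lacked enzyme.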

[5] = test system: hippocampal Shaffer collateral-CA1 synapses; settings: for Basal synaptic transmission, change versus vehicle-treated control during baseline pre-tetanus: urethane-anesthetized rats, SC-CA1 fEPSP slope; for Enduring (>2 h) synaptic potentiation after HFS (fEPSP slope, % of pre-tetanus baseline): vehicle level 119±4%; for fEPSP slope at 0-30 min after completion of the tetanization: vehicle level 139±1%
PDE2A = biological target: T5, PDE2A (Rattus norvegicus, UniProt Q01062); test: PDE2 occupancy by test compounds, ex-vivo autoradiography with [3H]B-17a; assay type: in vivo, Male Wistar rats; settings: route PO (oral)
T5 construct: Twenty μm-thick striatal sections were cut; from tissue; host or cells: rat brain, striatal sections
T5 sequence (Q01062 1-928): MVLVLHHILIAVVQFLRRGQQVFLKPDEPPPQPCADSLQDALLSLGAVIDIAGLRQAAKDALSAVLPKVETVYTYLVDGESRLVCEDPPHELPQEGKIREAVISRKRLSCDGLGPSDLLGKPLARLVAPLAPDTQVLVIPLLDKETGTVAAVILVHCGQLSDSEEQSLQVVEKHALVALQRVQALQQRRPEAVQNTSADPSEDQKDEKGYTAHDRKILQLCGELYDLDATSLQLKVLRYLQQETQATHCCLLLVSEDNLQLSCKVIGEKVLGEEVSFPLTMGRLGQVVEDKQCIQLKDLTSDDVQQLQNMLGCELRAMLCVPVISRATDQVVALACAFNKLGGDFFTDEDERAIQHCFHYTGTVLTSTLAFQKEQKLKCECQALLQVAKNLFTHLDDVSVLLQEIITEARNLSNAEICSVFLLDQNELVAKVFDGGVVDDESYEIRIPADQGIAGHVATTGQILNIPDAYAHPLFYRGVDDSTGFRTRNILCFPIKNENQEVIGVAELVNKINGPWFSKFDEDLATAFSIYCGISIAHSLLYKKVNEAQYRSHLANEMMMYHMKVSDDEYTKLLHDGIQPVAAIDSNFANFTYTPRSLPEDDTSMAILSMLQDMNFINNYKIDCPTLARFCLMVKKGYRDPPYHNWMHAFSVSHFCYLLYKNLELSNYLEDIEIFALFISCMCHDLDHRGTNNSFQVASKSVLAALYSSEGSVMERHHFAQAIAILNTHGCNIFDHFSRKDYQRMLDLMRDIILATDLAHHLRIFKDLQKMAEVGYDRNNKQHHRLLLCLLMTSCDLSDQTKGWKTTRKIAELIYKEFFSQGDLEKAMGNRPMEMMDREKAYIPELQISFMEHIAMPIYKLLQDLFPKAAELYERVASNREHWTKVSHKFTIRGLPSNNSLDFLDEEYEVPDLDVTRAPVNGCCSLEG

[6] = human recombinant PDE2A, 10 μM cGMP substrate

T2 sequence (O00408 whole entry): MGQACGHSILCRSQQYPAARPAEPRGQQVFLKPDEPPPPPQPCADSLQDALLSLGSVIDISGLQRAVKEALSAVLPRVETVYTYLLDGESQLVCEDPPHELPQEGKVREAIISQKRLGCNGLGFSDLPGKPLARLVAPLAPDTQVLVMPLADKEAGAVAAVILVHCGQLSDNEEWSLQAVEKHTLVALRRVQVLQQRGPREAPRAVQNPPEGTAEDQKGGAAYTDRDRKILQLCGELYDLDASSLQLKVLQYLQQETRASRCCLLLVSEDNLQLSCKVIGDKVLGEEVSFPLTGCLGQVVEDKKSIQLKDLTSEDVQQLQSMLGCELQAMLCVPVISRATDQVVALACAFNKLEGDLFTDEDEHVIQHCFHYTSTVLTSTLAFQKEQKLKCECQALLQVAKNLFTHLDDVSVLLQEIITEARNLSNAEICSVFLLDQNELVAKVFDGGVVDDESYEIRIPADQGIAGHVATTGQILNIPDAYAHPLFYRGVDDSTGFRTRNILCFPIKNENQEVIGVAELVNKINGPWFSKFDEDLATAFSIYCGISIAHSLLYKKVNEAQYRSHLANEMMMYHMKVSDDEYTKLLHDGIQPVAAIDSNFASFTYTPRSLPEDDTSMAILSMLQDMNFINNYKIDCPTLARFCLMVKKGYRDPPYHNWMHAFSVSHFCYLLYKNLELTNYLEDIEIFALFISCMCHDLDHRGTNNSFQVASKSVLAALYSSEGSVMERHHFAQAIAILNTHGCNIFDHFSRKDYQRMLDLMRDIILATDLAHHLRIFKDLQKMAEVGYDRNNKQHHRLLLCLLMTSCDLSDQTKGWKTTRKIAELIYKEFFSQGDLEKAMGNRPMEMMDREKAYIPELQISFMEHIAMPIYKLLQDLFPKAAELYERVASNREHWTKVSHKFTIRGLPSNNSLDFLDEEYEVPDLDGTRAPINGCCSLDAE
T1 sequence (Q14432 whole entry): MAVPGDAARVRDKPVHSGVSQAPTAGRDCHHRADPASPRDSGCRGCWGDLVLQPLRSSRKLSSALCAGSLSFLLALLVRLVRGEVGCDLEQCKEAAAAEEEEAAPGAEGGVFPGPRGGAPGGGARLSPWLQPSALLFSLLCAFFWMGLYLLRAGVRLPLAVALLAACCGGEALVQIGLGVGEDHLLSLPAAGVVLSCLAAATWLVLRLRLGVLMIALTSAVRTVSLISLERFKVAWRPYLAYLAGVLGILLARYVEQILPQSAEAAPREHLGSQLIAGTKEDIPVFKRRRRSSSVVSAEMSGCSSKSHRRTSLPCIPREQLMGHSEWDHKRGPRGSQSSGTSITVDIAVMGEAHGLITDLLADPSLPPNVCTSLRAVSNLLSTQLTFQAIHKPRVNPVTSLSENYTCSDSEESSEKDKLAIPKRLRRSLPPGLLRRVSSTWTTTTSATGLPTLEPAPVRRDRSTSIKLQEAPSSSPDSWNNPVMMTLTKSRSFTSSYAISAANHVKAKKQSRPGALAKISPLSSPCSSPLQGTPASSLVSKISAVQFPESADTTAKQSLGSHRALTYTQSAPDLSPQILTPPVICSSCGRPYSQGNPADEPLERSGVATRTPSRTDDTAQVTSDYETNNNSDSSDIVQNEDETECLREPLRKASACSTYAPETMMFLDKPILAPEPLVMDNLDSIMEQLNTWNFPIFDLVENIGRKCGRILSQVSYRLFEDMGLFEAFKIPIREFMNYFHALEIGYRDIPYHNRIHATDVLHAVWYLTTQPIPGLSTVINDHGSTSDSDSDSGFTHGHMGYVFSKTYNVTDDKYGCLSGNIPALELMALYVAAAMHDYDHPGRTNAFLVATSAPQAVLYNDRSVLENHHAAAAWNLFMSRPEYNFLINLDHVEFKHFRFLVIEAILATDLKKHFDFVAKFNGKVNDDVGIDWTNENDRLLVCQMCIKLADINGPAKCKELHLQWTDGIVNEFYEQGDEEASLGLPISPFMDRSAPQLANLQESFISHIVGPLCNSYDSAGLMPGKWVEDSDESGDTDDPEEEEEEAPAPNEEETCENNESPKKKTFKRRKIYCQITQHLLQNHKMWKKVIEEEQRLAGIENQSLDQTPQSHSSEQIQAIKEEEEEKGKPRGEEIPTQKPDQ
T4 sequence (Q9Y233 267-1055): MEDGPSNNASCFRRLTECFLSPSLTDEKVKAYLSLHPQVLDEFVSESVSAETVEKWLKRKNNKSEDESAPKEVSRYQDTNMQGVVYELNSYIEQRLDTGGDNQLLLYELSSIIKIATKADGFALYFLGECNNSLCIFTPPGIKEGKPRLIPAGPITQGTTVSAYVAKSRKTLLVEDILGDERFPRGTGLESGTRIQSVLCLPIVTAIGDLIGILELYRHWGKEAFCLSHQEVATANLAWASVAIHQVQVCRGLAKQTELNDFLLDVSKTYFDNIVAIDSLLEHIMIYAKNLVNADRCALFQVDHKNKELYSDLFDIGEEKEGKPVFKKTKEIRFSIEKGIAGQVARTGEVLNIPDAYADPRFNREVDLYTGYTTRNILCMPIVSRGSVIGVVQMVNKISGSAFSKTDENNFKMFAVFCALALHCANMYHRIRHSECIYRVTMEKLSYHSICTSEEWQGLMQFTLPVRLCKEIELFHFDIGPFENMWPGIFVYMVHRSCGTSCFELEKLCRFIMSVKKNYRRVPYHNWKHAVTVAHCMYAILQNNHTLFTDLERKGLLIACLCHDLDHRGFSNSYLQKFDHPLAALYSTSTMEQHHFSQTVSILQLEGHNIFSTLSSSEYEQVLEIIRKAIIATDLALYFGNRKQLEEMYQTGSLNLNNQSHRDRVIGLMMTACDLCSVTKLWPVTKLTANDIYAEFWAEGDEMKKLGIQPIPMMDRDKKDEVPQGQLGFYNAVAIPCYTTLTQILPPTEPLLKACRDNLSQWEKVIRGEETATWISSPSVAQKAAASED

| melting point | IC50 [1] | Emax [1] | IC50 [2, 6] | Emax ([2]; human recombinant PDE2A) | Emax [2] | IC50 [2] | Emax ([3]; rat clone (r)) | IC50 ([3]; rat clone (r)) | rPDE10A2 pIC50 ([3]; rat clone, indicated as (r)) | SMILES | Emax [4] | IC50 [4] | other results |
| --- | --- | --- | --- | --- | --- | --- | --- | --- | --- | --- | --- | --- | --- |
| 204.03 °C | > 10000 nM | 41% | 955 nM | 48% | 48% | 955 nM | 14% | > 10000 nM | <5 (r) | CC(=O)N1CCc2cc(C(=O)N3CCC[C@@](C)(c4cc(C(F)F)nc5ncnn45)C3)ccc21 (single isomer, unassigned) [Compound 203] |  |  |  |
| 181.11 °C | 7080 nM | 58% | 0.355 nM | 101% | 101% | 0.355 nM |  |  |  | C[C@@H]1CCN(C(=O)c2ccc3nccn3c2)C[C@H]1c1cc(C(F)F)nc2ncnn12 [Compound 40] | 97% | 123 nM | rPDE10A2 pIC50 ([3]; rat clone (r)): 7.1 (r); Emax ([3]; rat clone, indicated as (r)): 96%; IC50 ([3]; rat clone, indicated as (r)): 79.4 nM |
| 140.14 °C | > 10000 nM | 24% | 646 nM | 61% | 61% | 646 nM | -1% | 3090 nM | 5.51 (r) | CC1(c2cc(C(F)F)nc3ncnn23)CCCN(C(=O)c2ccc3occc3c2)C1 (stereo not shown) [Compound 201] |  |  |  |
| 78.65 °C | > 10000 nM | 18% | 2690 nM | 30% | 30% | 2690 nM | 4% | > 10000 nM | <5 (r) | CC1(c2ccnc3ncnn23)CCCN(C(=O)c2ccc3occc3c2)C1 (stereo not shown) [Compound 202] | 38% | > 10000 nM |  |

| SMILES | melting point | IC50 [1] | Emax [1] | IC50 [2, 6] | Emax ([2]; human recombinant PDE2A) | Emax [2] | IC50 [2] | Emax ([3]; rat clone (r)) | IC50 ([3]; rat clone (r)) | rPDE10A2 pIC50 ([3]; rat clone, indicated as (r)) | Emax [4] | IC50 [4] | other results |
| --- | --- | --- | --- | --- | --- | --- | --- | --- | --- | --- | --- | --- | --- |
| C[C@@H]1CCN(C(=O)c2ccc3occc3c2)C[C@H]1c1cc(C(F)F)nc2ncnn12 [Compound 97] |  |  |  |  |  |  |  | 99% | 34.7 nM | 7.46 (r) | 101% | 53.7 nM |  |
| COc1cc(C(=O)N2CC[C@@H](C)[C@H](c3cc(C(F)F)nc4ncnn34)C2)cc(C)n1 [Compound 110] |  | 3390 nM | 76% | 0.955 nM | 101% | 100% | 1.32 nM |  |  |  | 98% | 72.4 nM and 112 nM | Basal synaptic transmission, change versus vehicle-treated control during baseline pre-tetanus ([5]; 20 mg/kg subcutaneous): +8%; Enduring (>2 h) synaptic potentiation after HFS (fEPSP slope, % of pre-tetanus baseline) ([5]; 20 mg/kg subcutaneous): 137±8%; fEPSP slope at 0-30 min after completion of the tetanization ([5]; 20 mg/kg subcutaneous, p<0.05): 153±5%; Basal synaptic transmission, change versus vehicle-treated control during baseline pre-tetanus ([5]; 40 mg/kg subcutaneous): 9%; fEPSP at 90-120 min after tetanization ([5]; 40 mg/kg subcutaneous, vehicle level 106±13%, p<0.05): 129±5%; fEPSP at 60-90 min after tetanization ([5]; 40 mg/kg subcutaneous, vehicle level 116±9, p<0.05): 137±5%; Enduring (>2 h) synaptic potentiation after HFS (fEPSP slope, % of pre-tetanus baseline) ([5]; 40 mg/kg subcutaneous): 142±5%; fEPSP at 30-60 min after tetanization ([5]; 40 mg/kg subcutaneous, vehicle level 125±6, p<0.05): 146±6%; fEPSP slope at 0-30 min after completion of the tetanization ([5]; 40 mg/kg subcutaneous, p<0.05): 155±4%; Overall effect on basal synaptic transmission and LTP in vivo ([5]; 20 and 40 mg/kg subcutaneous, anesthetized rats): facilitates basal synaptic transmission and LTP in vivo; Slope of the SC-CA1 path fEPSPs across the I/O curves (excitability of CA1 cells) ([5]; 20 and 40 mg/kg versus vehicle, FIG. 16b, c): No differences; receptor occupancy at 10 mg/kg (PDE2A; po, 10 mg/kg, percentage receptor occupancy, ex-vivo autoradiography, striatum): 75%; ED50 (PDE2A; drug dose producing 50% receptor occupancy, read-out: PDE Occupancy ED50): 8.3 mg/kg |
